#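 The compound was tested at five concentrations on cells cultured in 96-well plates, with a 48-hour exposure period. At the TGI there is no net growth.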
# Key:
# Test in all cases: inhibition of tumour cell growth, NCI panel, 48 h
# 786-0 renal = tested on: 786-0 renal
# A498 renal = tested on: A498 renal
# A549 NSCLC = tested on: A549 NSCLC
# ACHN renal = tested on: ACHN renal
# BT-549 breast = tested on: BT-549 breast
# CCRF-CEM leukemia = tested on: CCRF-CEM leukemia
# COLO 205 colon = tested on: COLO 205 colon
# DU-145 prostate = tested on: DU-145 prostate
# EKVX NSCLC = tested on: EKVX NSCLC
# HCC-2998 colon = tested on: HCC-2998 colon
# HCT-116 colon = tested on: HCT-116 colon
# HCT-15 colon = tested on: HCT-15 colon
# HL-60(TB) leukemia = tested on: HL-60(TB) leukemia
# HOP-62 NSCLC = tested on: HOP-62 NSCLC
# HOP-92 NSCLC = tested on: HOP-92 NSCLC
# HS 578T breast = tested on: HS 578T breast
# HT29 colon = tested on: HT29 colon
# IGROV1 ovarian = tested on: IGROV1 ovarian
# K-562 leukemia = tested on: K-562 leukemia
# KM12 colon = tested on: KM12 colon
# LOX IMVI melanoma = tested on: LOX IMVI melanoma
# M14 melanoma = tested on: M14 melanoma
# MALME-3M melanoma = tested on: MALME-3M melanoma
# MCF7 breast = tested on: MCF7 breast
# MDA-MB-231 breast = tested on: MDA-MB-231 breast
# MDA-MB-435 = tested on: MDA-MB-435
# MDA-N = tested on: MDA-N
# MOLT-4 leukemia = tested on: MOLT-4 leukemia
# NCI-H226 lung = tested on: NCI-H226 lung
# NCI-H23 lung = tested on: NCI-H23 lung
# NCI-H460 lung = tested on: NCI-H460 lung
# NCI-H522 lung = tested on: NCI-H522 lung
# NCI/ADR-RES ovarian = tested on: NCI/ADR-RES ovarian
# OVCAR-3 ovarian = tested on: OVCAR-3 ovarian
# OVCAR-4 ovarian = tested on: OVCAR-4 ovarian
# OVCAR-5 ovarian = tested on: OVCAR-5 ovarian
# OVCAR-8 ovarian = tested on: OVCAR-8 ovarian
# PC-3 prostate = tested on: PC-3 prostate
# RPMI-8226 leukemia = tested on: RPMI-8226 leukemia
# RXF 393 renal = tested on: RXF 393 renal
# SF-268 CNS = tested on: SF-268 CNS
# SF-295 CNS = tested on: SF-295 CNS
# SF-539 CNS = tested on: SF-539 CNS
# SK-MEL-2 melanoma = tested on: SK-MEL-2 melanoma
# SK-MEL-28 melanoma = tested on: SK-MEL-28 melanoma
# SK-MEL-5 melanoma = tested on: SK-MEL-5 melanoma
# SK-OV-3 ovarian = tested on: SK-OV-3 ovarian
# SN12C renal = tested on: SN12C renal
# SNB-19 CNS = tested on: SNB-19 CNS
# SNB-75 CNS = tested on: SNB-75 CNS
# SR leukemia = tested on: SR leukemia
# SW-620 colon = tested on: SW-620 colon
# T-47D breast = tested on: T-47D breast
# TK-10 renal = tested on: TK-10 renal
# U251 CNS = tested on: U251 CNS
# UACC-257 melanoma = tested on: UACC-257 melanoma
# UACC-62 melanoma = tested on: UACC-62 melanoma
# UO-31 renal = tested on: UO-31 renal
# CAKI-1 renal = tested on: CAKI-1 renal
# DLD-1 colon = tested on: DLD-1 colon
# DMS 114 small cell lung = tested on: DMS 114 small cell lung
# DMS 273 small cell lung = tested on: DMS 273 small cell lung
# HOP-18 NSCLC = tested on: HOP-18 NSCLC
# KM20L2 colon = tested on: KM20L2 colon
# LXFL 529 NSCLC = tested on: LXFL 529 NSCLC
# M19-MEL melanoma = tested on: M19-MEL melanoma
# SNB-78 CNS = tested on: SNB-78 CNS
smiles,measurement,setting,value
COC(=O)C(Cc1c[nH]c2ccccc12)NP(=O)(O)OCC1OC(n2cc(F)c(=O)[nH]c2=O)CC1O (stereo unspecified),TGI,786-0 renal,> 100 µM
same,TGI,A498 renal,> 100 µM
same,TGI,A549 NSCLC,> 100 µM
same,TGI,ACHN renal,> 100 µM
same,TGI,BT-549 breast,> 100 µM
same,TGI,CCRF-CEM leukemia,> 59.1 µM
same,TGI,COLO 205 colon,> 100 µM
same,TGI,DU-145 prostate,> 100 µM
same,TGI,EKVX NSCLC,> 100 µM
same,TGI,HCC-2998 colon,> 100 µM
same,TGI,HCT-116 colon,> 100 µM
same,TGI,HCT-15 colon,> 100 µM
same,TGI,HL-60(TB) leukemia,> 100 µM
same,TGI,HOP-62 NSCLC,> 100 µM
same,TGI,HOP-92 NSCLC,> 100 µM
same,TGI,HS 578T breast,> 100 µM
same,TGI,HT29 colon,> 100 µM
same,TGI,IGROV1 ovarian,> 100 µM
same,TGI,K-562 leukemia,> 100 µM
same,TGI,KM12 colon,> 100 µM
same,TGI,LOX IMVI melanoma,> 100 µM
same,TGI,M14 melanoma,> 100 µM
same,TGI,MALME-3M melanoma,> 100 µM
same,TGI,MCF7 breast,> 100 µM
same,TGI,MDA-MB-231 breast,> 100 µM
same,TGI,MDA-MB-435,> 100 µM
same,TGI,MDA-N,> 100 µM
same,TGI,MOLT-4 leukemia,> 100 µM
same,TGI,NCI-H226 lung,> 100 µM
same,TGI,NCI-H23 lung,> 100 µM
same,TGI,NCI-H460 lung,> 100 µM
same,TGI,NCI-H522 lung,> 100 µM
same,TGI,NCI/ADR-RES ovarian,> 100 µM
same,TGI,OVCAR-3 ovarian,> 100 µM
same,TGI,OVCAR-4 ovarian,> 100 µM
same,TGI,OVCAR-5 ovarian,> 100 µM
same,TGI,OVCAR-8 ovarian,> 100 µM
same,TGI,PC-3 prostate,> 100 µM
same,TGI,RPMI-8226 leukemia,> 100 µM
same,TGI,RXF 393 renal,> 100 µM
same,TGI,SF-268 CNS,> 100 µM
same,TGI,SF-295 CNS,> 100 µM
same,TGI,SF-539 CNS,> 100 µM
same,TGI,SK-MEL-2 melanoma,> 100 µM
same,TGI,SK-MEL-28 melanoma,> 100 µM
same,TGI,SK-MEL-5 melanoma,> 100 µM
same,TGI,SK-OV-3 ovarian,> 100 µM
same,TGI,SN12C renal,> 100 µM
same,TGI,SNB-19 CNS,> 100 µM
same,TGI,SNB-75 CNS,> 100 µM
same,TGI,SR leukemia,> 51.9 µM
same,TGI,SW-620 colon,> 100 µM
same,TGI,T-47D breast,> 100 µM
same,TGI,TK-10 renal,> 100 µM
same,TGI,U251 CNS,> 100 µM
same,TGI,UACC-257 melanoma,> 100 µM
same,TGI,UACC-62 melanoma,> 100 µM
same,TGI,UO-31 renal,> 100 µM
CCOC(=O)/C=C1\Nc2ccccc2-n2nnnc21,TGI,786-0 renal,> 100 µM
same,TGI,A498 renal,> 100 µM
same,TGI,A549 NSCLC,> 100 µM
same,TGI,ACHN renal,> 100 µM
same,TGI,CAKI-1 renal,> 100 µM
same,TGI,CCRF-CEM leukemia,> 100 µM
same,TGI,COLO 205 colon,> 100 µM
same,TGI,DLD-1 colon,> 100 µM
same,TGI,DMS 114 small cell lung,> 100 µM
same,TGI,DMS 273 small cell lung,93.5 µM
same,TGI,EKVX NSCLC,> 100 µM
same,TGI,HCC-2998 colon,> 100 µM
same,TGI,HCT-116 colon,> 100 µM
same,TGI,HCT-15 colon,> 100 µM
same,TGI,HL-60(TB) leukemia,> 100 µM
same,TGI,HOP-18 NSCLC,> 100 µM
same,TGI,HOP-62 NSCLC,> 100 µM
same,TGI,HOP-92 NSCLC,> 100 µM
same,TGI,HT29 colon,> 100 µM
same,TGI,IGROV1 ovarian,> 100 µM
same,TGI,K-562 leukemia,> 100 µM
same,TGI,KM12 colon,> 100 µM
same,TGI,KM20L2 colon,> 100 µM
same,TGI,LOX IMVI melanoma,> 100 µM
same,TGI,LXFL 529 NSCLC,> 100 µM
same,TGI,M14 melanoma,> 100 µM
same,TGI,M19-MEL melanoma,> 100 µM
same,TGI,MALME-3M melanoma,> 100 µM
same,TGI,MOLT-4 leukemia,> 100 µM
same,TGI,NCI-H226 lung,> 100 µM
same,TGI,NCI-H23 lung,> 100 µM
same,TGI,NCI-H460 lung,> 100 µM
same,TGI,OVCAR-3 ovarian,> 100 µM
same,TGI,OVCAR-4 ovarian,> 100 µM
same,TGI,OVCAR-5 ovarian,> 100 µM
same,TGI,OVCAR-8 ovarian,> 100 µM
same,TGI,RPMI-8226 leukemia,> 100 µM
same,TGI,RXF 393 renal,> 100 µM
same,TGI,SF-268 CNS,> 100 µM
same,TGI,SF-295 CNS,> 100 µM
same,TGI,SF-539 CNS,> 100 µM
same,TGI,SK-MEL-2 melanoma,> 100 µM
same,TGI,SK-MEL-28 melanoma,> 100 µM
same,TGI,SK-MEL-5 melanoma,> 100 µM
same,TGI,SK-OV-3 ovarian,> 100 µM
same,TGI,SN12C renal,> 100 µM
same,TGI,SNB-19 CNS,> 100 µM
same,TGI,SNB-75 CNS,> 100 µM
same,TGI,SNB-78 CNS,> 100 µM
same,TGI,SR leukemia,> 100 µM
same,TGI,SW-620 colon,58.6 µM
same,TGI,TK-10 renal,> 100 µM
same,TGI,U251 CNS,64.5 µM
same,TGI,UACC-257 melanoma,> 100 µM
same,TGI,UACC-62 melanoma,> 100 µM
same,TGI,UO-31 renal,> 100 µM
CC(C)=CCC[C@@H](C)C1=C(Nc2ccccc2)C(O)=C(C)C(=O)C1=O,TGI,786-0 renal,> 48.5 µM
same,TGI,A498 renal,> 30.4 µM
same,TGI,A549 NSCLC,13.5 µM
same,TGI,BT-549 breast,23.1 µM
same,TGI,CAKI-1 renal,11.8 µM
same,TGI,CCRF-CEM leukemia,0.874 µM
same,TGI,COLO 205 colon,13.1 µM
same,TGI,DU-145 prostate,28.2 µM
same,TGI,EKVX NSCLC,> 39.4 µM
same,TGI,HCC-2998 colon,> 41.4 µM
same,TGI,HCT-116 colon,16.9 µM
same,TGI,HCT-15 colon,13.4 µM
same,TGI,HL-60(TB) leukemia,1.35 µM
same,TGI,HOP-62 NSCLC,15.6 µM
same,TGI,HOP-92 NSCLC,9.9 µM
same,TGI,HS 578T breast,9.5 µM
same,TGI,HT29 colon,15.3 µM
same,TGI,IGROV1 ovarian,17.6 µM
same,TGI,K-562 leukemia,> 39.9 µM
same,TGI,KM12 colon,20.7 µM
same,TGI,LOX IMVI melanoma,97.1 µM
same,TGI,M14 melanoma,15.6 µM
same,TGI,MALME-3M melanoma,19.9 µM
same,TGI,MCF7 breast,22.5 µM
same,TGI,MDA-MB-231 breast,> 27.4 µM
same,TGI,MDA-MB-435,> 48.3 µM
same,TGI,MDA-N,54.2 µM
same,TGI,MOLT-4 leukemia,> 22.7 µM
same,TGI,NCI-H226 lung,18.1 µM
same,TGI,NCI-H23 lung,12.9 µM
same,TGI,NCI-H460 lung,> 40 µM
same,TGI,NCI-H522 lung,16.5 µM
same,TGI,NCI/ADR-RES ovarian,3.96 µM
same,TGI,OVCAR-3 ovarian,8.97 µM
same,TGI,OVCAR-4 ovarian,> 43.5 µM
same,TGI,OVCAR-5 ovarian,> 43.5 µM
same,TGI,OVCAR-8 ovarian,23.5 µM
same,TGI,PC-3 prostate,> 40.5 µM
same,TGI,RPMI-8226 leukemia,> 100 µM
same,TGI,RXF 393 renal,21.3 µM
same,TGI,SF-268 CNS,25.2 µM
same,TGI,SF-295 CNS,11.1 µM
same,TGI,SK-MEL-2 melanoma,19.8 µM
same,TGI,SK-MEL-28 melanoma,30.9 µM
same,TGI,SK-MEL-5 melanoma,7.97 µM
same,TGI,SK-OV-3 ovarian,> 36.4 µM
same,TGI,SN12C renal,41.6 µM
same,TGI,SNB-19 CNS,22.8 µM
same,TGI,SNB-75 CNS,15.6 µM
same,TGI,SR leukemia,6.08 µM
same,TGI,SW-620 colon,> 48 µM
same,TGI,T-47D breast,32.3 µM
same,TGI,TK-10 renal,> 55.1 µM
same,TGI,U251 CNS,> 56.1 µM
same,TGI,UACC-257 melanoma,41.9 µM
same,TGI,UACC-62 melanoma,20.7 µM
same,TGI,UO-31 renal,15.5 µM

# — PubChem BioAssay (NCI)
